Assay results taken from US20210252265A1, “DEVICES AND METHODS FOR ULTRASONIC DELIVERY OF AN AGENT WITHIN AN ORAL CAVITY” (Suono Bio, Inc., priority 2018, published 2021).

System: oral inflammatory lesions in hamster cheek pouches
Assay: Treatment of acetic acid-induced oral inflammatory lesions in hamster cheek pouches
Format: in vivo, Golden Syrian hamsters
Conditions: mean +/- SEM
Protocol: FIG. 10 is a schematic of the procedure used to test delivery of budesonide to treat or prevent ulcers induced by acetic acid in hamster cheek pouches. 50% acetic acid was administered for 60 seconds. Male Golden Syrian hamsters weighing 100-120 g (Charles River Laboratories, Wilmington, Mass.) were used as received and randomly assigned to experimental groups by the researchers performing the work. To limit pain and distress, all animals received buprenorphine sustained release (SR) (subcutaneous administration, 1 mg/kg body weight, compounded by ZooPharm) just prior to the application of acetic acid for the induction of the oral lesion on day 0. All manipulations occurred with the animal under general anesthesia by inhaled isoflurane. Experimental treatment groups included topical application of budesonide solution with (Budesonide+US) and without (Budesonide) ultrasound. A positive disease control receiving no treatment was also included (Disease). Treatment was administered on day 0 immediately prior to lesion induction using acetic acid. While under general anesthesia, the left cheek pouch was everted, the device was placed on the buccal surface, and the fluid chamber filled with solubilized budesonide solution (0.1%, ˜1 mL). For the Budesonide+US treatment group, ultrasound was simultaneously applied for 3 seconds at an intensity of 5 W/cm2 and a 100% duty cycle. In experimental groups receiving budesonide only (Budesonide), drug was applied as described above without turning the ultrasound on. Immediately following budesonide treatment, oral lesions were induced by topical application of acetic acid (50% solution) as described in previous studies. Briefly, acetic acid was applied to the buccal surface using a liquid holder with a circular area of 5 mm2 for 60 seconds. After acetic acid application, the hamsters were placed back into their cages to recover. On every subsequent day, the cheek pouches were everted to reveal the lesion and an image captured to quantify lesion size. Treatments were then applied as described above. Lesion size was measured using ImageJ (National Institutes of Health, Bethesda, Md.). All data analysis was performed using GraphPad Prism software (GraphPad Software, Inc., La Jolla, Calif., USA). Two-group comparisons were made using Student's unpaired t-test using Welch's correction. Multiple comparisons were made using one-way ANOVA followed by Tukey's post-test. For all comparisons, p<0.05 was considered statistically significant. Data are reported as mean±standard error of the mean (SEM) except for temperature measurements that are reported as mean±standard deviation (SD).

CCCC1O[C@@H]2C[C@H]3[C@@H]4CCC5=CC(=O)C=C[C@]5(C)[C@H]4[C@@H](O)C[C@]3(C)[C@]2(C(=O)CO)O1 (stereo partly shown) [Budesonide]
oral lesion size (24 hours post-acetic acid induced injury, budesonide solution 0.1% with 40 kHz ultrasound 3 seconds, 5 W/cm2): 15.7+/−1.3 mm2
oral lesion size (24 hours post-acetic acid induced injury, topical budesonide solution 0.1% without ultrasound): 20.3+/−1.1 mm2
oral lesion size (48 hours after acetic acid-induced injury, budesonide with ultrasound): 18.71+/−2.3 mm2
oral lesion size (48 hours after acetic acid-induced injury, topical budesonide without ultrasound): 25.5+/−1.6 mm2
